Measured values published in patent publication US9545412B2, “Composition and methods used during anti-HIV treatment” (UNIVERSITE D'AIX-MARSEILLE, priority 2008, dated 2017).

How the values were obtained:
[1] = system: progerin; assay: Mass spectrometry (MALDI-ToF) of nuclear envelope proteins, cells of progeria patients; type: cell-based, human; conditions: FTI 2.5 μM
Description: (§1) The fibroblasts of control and Zmpste24^−/− mice as well as the cells lymphoblastoids of progeria patients have been homogenised, the nuclei isolated via ultracentrifugation and the nuclear proteins obtained as described in Blobel and Potter, V. R. Nuclei from rat liver: isolation method that combines purity with high yield, Science 154, 1662-1665, 1966. The proteins of the nuclear lamina were separated via SDS-PAGE electrophoresis, and the strips containing the lamin A, the prelamin A and the progerin were excised. The fragments of the gel were washed twice with […] of a ammonium bicarbonate/acetonitrile mixture (70/30, 25 mM), dried (15 min, 90° C.) and digested (1 h, 60° C.) with trypsin (12 ng/ml, Promega) in the ammonium bicarbonate 25 mM. […] The data collected using 200 laser firings produce spectra analysed with the Data Explorer programme (version 4.0.0.0, Applied Biosystems).
FIG. 11 legend: mass spectrometry analysis of the proteins extracted from the nuclear envelop of the untreated cells (a), of the cells of the progeria patients treated with FTI (2.5 μM, b) or treated with the mixture of pravastatin+zoledronate (1 μM apiece, c). […] Each peak corresponds to the tryptic peptide of the progerin and is marked with the measured monoisotopic mass in experiment and with the theoretical mass (between parentheses). […]

[2] = system: prelamin A; assay: Mass spectrometry (MALDI-ToF) of nuclear envelope proteins, Zmpste24^−/− mouse fibroblasts; type: cell-based; conditions: FTI-treated Zmpste24^−/− mouse cells
Description: as §1
FIG. 12 legend: a mass spectrometry analysis of the proteins extracted from the nuclear envelop of the untreated fibroblasts (a) or treated with a mixture of pravastatin+zoledronate (1 μM apiece, b) stemming from Zmpste24^−/− mice. […] Each peak corresponds to a tryptic peptide of the progerin and is marked with a monoisotopic mass measured the experiment and with the theoritical mass (in parentheses). […]

[3] = system: cells of progeria patients; assay: Quantitative analysis of nuclear morphology of cells of progeria patients; type: cell-based, human; conditions: added to pravastatin+zoledronate, abnormal nuclei measured 48 h after beginning of treatment
Description: The dermal fibroblasts of a control subject (GM00038) and of patients afflicted with progeria and carriers of the mutation G608G (AG11498 and AG01972) were obtained from the Coriell Cell Repository. The HeLa cells come from the American Type Culture Collection. The cells are cultivated in DMEM (Gibco) supplemented with 10% FBS (Gibco) and 1% antibiotic-antimycotic (Gibco). The fibroblasts come from tails of 12-day-old mice (Varela and al., 2005). The concentration and the duration of treatment with the statin and the aminobiphosphonate are indicated in the legende of the figures. […] The percentage of abnormal nuclei is measured 48 h after the beginning of the treatment. […]
The dilution of the primary antibodies is 1/100 for the goat polyclonal anti-prelamin A antibody (Sc-6214, Santa Cruz Biotechnologies), 1/40 for the anti-lamin A/C antibody (4A7 provided by G. Morris), 1/200 for the Rabbit anti-calreticulin antibody (Stressgen) and 1/100 for the B1 anti-lamin antibody (Abcam). […] Digital images are recorded with a Leica DMR microscope equipped with a CoolSnap camera or with a Leica TCS SP5 confocal microscope. […] More than 100 nuclei were analysed in the control fibroblasts for each of the treatments. The number of nuclei of cells of patients afflicted with progeria analysed is 250 (passage 8), 198 (passage 13) and 150 (passage 20). […]

[4] = system: Zmpste24^−/− mouse cells; assay: Nuclear morphology of Zmpste24^−/− mouse cells in culture; type: cell-based; conditions: pravastatin (1 μM) and zoledronate (1 μM), alone or in combination
Description: (§2) The dermal fibroblasts of a control subject (GM00038) and of patients afflicted with progeria and carriers of the mutation G608G (AG11498 and AG01972) were obtained from the Coriell Cell Repository. The HeLa cells come from the American Type Culture Collection. The cells are cultivated in DMEM (Gibco) supplemented with 10% FBS (Gibco) and 1% antibiotic-antimycotic (Gibco). The fibroblasts come from tails of 12-day-old mice (Varela and al., 2005). The concentration and the duration of treatment with the statin and the aminobiphosphonate are indicated in the legende of the figures. During the combined statin+aminobiphosphonate treatment in the presence of farnesol and/or of geranylgeraniol, […] were added to the culture medium with increasing concentrations of farnesol and/or of geranylgeraniol. The percentage of abnormal nuclei is measured 48 h after the beginning of the treatment.
(§3) Quantification of the effect of pravastatin (1 μM) and zoledronate (1 μM), alone or in combination, on the nuclear morphology of Zmpste24^−/− mouse cells (a) and control mouse cells (b) in culture, in the presence of farnesol, geranylgeraniol or both molecules.

[5] = system: control fibroblasts; assay: Nuclear morphology of control mouse cells in culture; type: cell-based
Description: as §2, §3

[6] = system: prelamin A; assay: Immunohistochemistry: prelamin A level in healthy cells; type: cell-based, human; conditions: Pravastatin 100 μM for 12 hours, Zoledronate 20 μM for 6 hours; in association or alone
Method: (§4) A cell culture is trypsinized, and the cells are counted on a Neubauer cytometer.
(§5) Labtech culture wells (Nunc, ref. 177399) are seeded in an amount of 5×10^4 cells per well.
(§6) The complete culture medium is supplemented by the treatment(s) (statin, NBP, both), and the cells are cultivated for the ad hoc time.
(§7) The cells are fixed in a paraformaldehyde 4% solution (in PBS) for 10 minutes at room temperature.
(§8) […], the cells are incubated for 5 minutes at room temperature in a humidity chamber in 50 μl of permeabilization solution:
(§9) The primary antibody is diluted to 1/100 in 50 μl of incubation solution and placed in contact with the cells for 1 hour at room temperature in a humidity chamber.
(§10) The primary antibodies used are of two types: • Mouse anti-lamin A/C (N-terminal side), clone 4A7, donated by G. Morris (Oswestry, UK) • Goat anti-prelamin A (C-terminal end 15 aa), product SC6214, Santa Cruz Biotchnology, Inc.
(§11) The incubation with the secondary antibody takes place for 1 hour in […] of incubation solution at room temperature in a humidity chamber. […]
(§12) The cells are immersed in one drop of VectaShield (Vector), covered with an object-cover slide and observed under a fluorescence microscope (Leica DMR, Leica Microsystems), equipped with a coolSNAP camera (Princeton). […]

[7] = system: healthy cells; assay: Immunohistochemistry: toxicity / deformed nuclei on healthy cells; type: cell-based, human; conditions: Pravastatin 100 μM for 12 hours, Zoledronate 20 μM for 6 hours; in association or alone
Method: as §4, §5, §6, §7, §8, §9, §10, §11, §12

[8] = system: Zmpste24^−/− mice; assay: Progeroid phenotype and lifespan of Zmpste24^−/− mice (Example 7); type: in vivo, mouse; conditions: daily treatment with one drug alone
Method: All of the experiments on mice are governed by the rules set down by the Animal Experiment Committee of the University of Oviedo (Spain). The pravastatin (100 mg/kg/day) and the zoledronate (100 mg/kg/day) diluted in PBS are administered to the mice every day.

SMILES	effect on the nuclear morphology improvement given by the pravastatin+zoledronate treatment [3]	effect on the nuclear morphology improvement given by the pravastatin+zoledronate treatment [4]	effect on nuclear morphology of control fibroblasts [5]	prelamin A level produced in healthy cells [6] [%]	also measured
COC(=O)[C@H](CCSC)NC(=O)c1ccc(NC[C@@H](N)CS)cc1-c1ccccc1 [FTI-277]					farnesylated and carboxymethylated progerin peak [1]: considerable reduced; geranylgeranylated progerin peptides [1]: appears geranylgeranylated and phosphoryl; geranyl-geranylated prelamin A peptide [2]: detected a peptide which mass is compatible with a geranyl-geranylated fragment of the prelamine A; quantity of farnesylated prelamin A [2]: reduction in the quantity of farnesyled prelamine A
CC(C)=CCCC(C)=CCCC(C)=CCO [farnesol]	nullifies the effect of the pravastatin+zoledronate treatment	nullify the effect of the pravastatin+zoledronate treatment	Neither farnesol nor geranylgeraniol have any effect		
CC(C)=CCC/C(C)=C/CC/C(C)=C/CC/C(C)=C/CO [geranylgeraniol]	blocks the effect of the treatment	nullify the effect of the pravastatin+zoledronate treatment	Neither farnesol nor geranylgeraniol have any effect		
CC[C@H](C)C(=O)O[C@H]1C[C@H](O)C=C2C=C[C@H](C)[C@H](CC[C@@H](O)C[C@@H](O)CC(=O)O)[C@H]21 [pravastatin]				25	rate of deformed nuclei (sign of toxicity on healthy cells) [7]: around 12%
O=P(O)(O)C(O)(Cn1ccnc1)P(=O)(O)O [zoledronate, (1-hydroxy-2-imidazol-1-yl-1-phosphono-ethyl) phosphonic acid]				15	lifespan of Zmpste24^−/− mice, drug in isolation [8]: neither of the drugs in isolation, pravastatin or zoledronate, increases the lifespan
